This is an account of results in patent US5506215A, “1-(3'-fluoro-2',3'-dideoxy-β-D-ribofuranosyl)-5-substituted pyrimidine nucleosides” (Medivir AB, priority 1987, dated 1996).

Series [1] relates to HIV. The experiment in a line: Inhibition of HIV multiplication in cell culture, H9 cells (Koshida et al. method). As to conditions: for inhibition at 0.1 µg/mL: Human immunodeficiency virus 1, H9, 0.1 μg/ml; for inhibition at 10 µg/mL: Human immunodeficiency virus 1, H9, 10 μg/ml; for inhibition at 1 µg/mL: Human immunodeficiency virus 1, H9, 1 μg/ml. The class given is cell-based. The text has this: The activity against human immunodeficiency virus (HIV) has been tested for the compounds listed and the resulting activities are shown in the Table below.
The data in the Table were gathered and tests performed as described by Koshida et el., "Inhibition of Human Immunodeficiency Virus in vitro by Combination of 3'-Azido-3'-Deoxythymidine and Foscarnet" in Antimicrob Agents and Chemotherapy, Vol 33 (1989) p. 778-780 (on H9 cells for compounds X-XII) and by De Clercq et el, Nucleosides and Nucleotides, Vol 8 (1989) p. 659-671 (on MT4 cells, literature data for compounds XIV-XVI).

The next series has as its system HIV (HTLV-IIIB). Kind of series: Test I, effect of compounds on HIV in H9 cells (HIV antigen containing cells). As to conditions: read-out: Concentration for 50% inhibition (IC50) of human immuno deficiency virus multiplication in cell culture. The class given is cell-based. The procedure:
Materials and methods: HIV infection of H9 cells
H9 cells, 10^5 cells per well on a 24 well plate, suspended in 2 ml RPMI-medium containing 10% fetal calf serum, 100 μg/ml penicillin, 10 μg/ml streptomycin sulfate and 2μg/ml polybrene are exposed to HIV (HTLV-IIIB) and different concentrations of the test compounds. The plates are incubated at 37° C. in 5% CO2 for 6-7 days. The contents in each well is then homogenized with a pipette and transferred to a centrifuge tube. After centrifugation for 10 min at 1500 rpm the supernatant is removed and the cell pellet is analyzed by fixing in methanol on glass plates. Human HIV positive serum diluted 1:80 or 1:160 is added and incubated for 30 min at 37° C. The plate is then washed with phosphate-buffered saline (PBS) containing Ca^2+ and Mg^2+. Sheep antihuman conjugate (FITC) is added and after a new incubation the plate is again washed with PBS. Contrast staining is done with Evans blue and after drying the frequency of HIV antigen containing cells is determined in a microscope.

A short description of series [2]: Test II, cellular toxicity, H9 cells. The class given is cell-based. As to conditions: human, read-out: % inhibition of cell multiplication. The procedure: H9 cells, 2×10^7 cells per plate, are incubated in […] medium containing 10% fetal calf serum, 70 mg/l penicillin, 100 mg/l streptomycin and 10 mM hepes, in absence or presence of test compounds. The number of cells per plate is determined after 48 h. Cells incubated in the absence of test compounds then underwent two cell division cycles.
(§1) F5000 cells, which are human embryo cells, 1×10^5 cells per plate, are incubated in Eagle's minimal essential medium, supplemented with Earle's salts, non-essential amino acids, 10% fetal calf serum, 10 mM hopes, 70 mg/l penicillin and 100 mg/l streptomycin, in absence or presence of test compounds. The number of cells per plate is determined after 48 h. Cells incubated in the absence of test compounds underwent one cell division cycle.

Series [3] in a line: Test II, cellular toxicity, F5000 cells. The class given is cell-based. The conditions noted are these: human, read-out: % inhibition of cell multiplication. The procedure:
as §1

In series [4] the test system is HIV. The conditions noted are these: MT4 cells, literature data, cited from earlier work.
[5] abbreviates: Human immunodeficiency virus 1, 6-7 days.

“And” between values parts separate entries of the source, which are not always exact repeats. Equal entries are not always repeated. Where two headings read alike, the source gives them in different places.

For orientation: inhibition means the share of the control response that was lost under treatment. As for `CO[C@H]1[C@H](F)[C@@H](CO)O[C@H]1n1cc(C)c(=O)[nH]c1=O` [Example X, 1-(3'-fluoro-2'-methoxy-2',3'-dideoxy-β-D-arabinofuranosyl)thymine], in the series with HIV [1] (10 μg/ml), the “% Inhibition of HIV multiplication” value was 83% and 79%. In the series on HIV [1], the inhibition at 0.1 µg/mL turned out to be 58% and the inhibition at 10 µg/mL is 85%.
As for `CO[C@H]1[C@H](N=[N+]=[N-])[C@@H](CO)O[C@H]1n1cc(C)c(=O)[nH]c1=O` [Example XI, 1-(3'-azido-2'-methoxy-2',3'-dideoxy-β-D-arabinofuranosyl)thymine], the “% Inhibition of HIV multiplication” value is 32% in the series on HIV [1] (0.1 μg/ml) and 38% in the series on HIV [1] (1 μg/ml). The inhibition at 0.1 µg/mL in the series with HIV [1] amounted to 27%. The inhibition at 1 µg/mL in the series with HIV [1] came to 21%.
Consider `CCc1cn([C@H]2C[C@H](F)[C@@H](CO)O2)c(=O)[nH]c1=O` [VSA 410, 1-(3'-F-2',3'-dideoxy-β-D-ribofuranosyl)-5-ethyl-uracil], for which the IC50 with HIV (HTLV-IIIB) (setting [5]) was below 1 µM. Besides, the inhibition at 48 h, 100 µM in series [2] (100 μM) and in series [3] was 25% throughout.
Turning to `C#C[C@H]1C[C@H](n2cc(C)c(=O)[nH]c2=O)O[C@@H]1CO` [Example XII, 1-[2,3-Dideoxy-3-C-ethynyl-β-D-erythro-pentofuranosyl]thymine], in the series on HIV [1], the inhibition at 1 µg/mL is 18% and the inhibition at 10 µg/mL was 54%.
On to `O=c1[nH]c(=O)n([C@H]2C[C@H](F)[C@@H](CO)O2)cc1Cl` [XVI], for which the “% Inhibition of HIV multiplication” value with HIV [4] (0.04 μg/ml) is 50%.
On to `O=c1ccn([C@H]2C[C@H](F)[C@@H](CO)O2)c(=O)[nH]1` [VSA 417, 1-(3'-F-2',3'-dideoxy-β-D-ribofuranosyl)-uracil], for which the IC50 in the series with HIV (HTLV-IIIB) (setting [5]) came to 0.5 µM. In series [3], the inhibition at 48 h, 100 µM was found to be 10%.
Consider `CCCc1cn([C@H]2C[C@H](F)[C@@H](CO)O2)c(=O)[nH]c1=O` [VSA 408, 1-(3'-F-2',3'-dideoxy-β-ribofuranosyl)-5-propyl-uracil], for which, in the series on HIV (HTLV-IIIB) (setting [5]), the IC50 turned out to be 1 µM. In addition, the inhibition at 48 h, 250 µM in series [2] (250 μM) was 15%. The inhibition at 48 h, 100 µM in series [3] came out at 0%.
As for `O=c1[nH]c(=O)n([C@H]2C[C@H](F)[C@@H](CO)O2)cc1Br` [XIV, 5-bromo-1-(3'-fluoro-2',3'-dideoxy-β-D-ribofuranosyl)uracil], the “% Inhibition of HIV multiplication” value in the series with HIV [4] (0.1 μg/ml) is reported as 50%.
For `O=c1[nH]c(=O)n([C@H]2C[C@H](F)[C@@H](CO)O2)cc1I` [XV, 5-iodo-1-(3'-fluoro-2',3'-dideoxy-β-D-ribofuranosyl)uracil], the “% Inhibition of HIV multiplication” value in the series on HIV [4] (0.1 μg/ml) was 50%.
Consider `CC(=O)OC[C@H]1O[C@@H](n2cc(C)c(=O)[nH]c2=O)C[C@@H]1F` [VSB 423, 1-(5'-acetyl-3'-fluoro-2',3'-dideoxy-β-D-ribofuranosyl)-5-methyluracil], for which, in the series on HIV (HTLV-IIIB) (6-7 days), the IC50 is below 0.01 µM.
